Reference: patent publication US12319655B2, “RAF kinase inhibitors and methods of use thereof” (Deciphera Pharmaceuticals, LLC, priority 2021, dated 2025)

How the values were obtained:
Format in all cases: cell-based
[1] = tested on: Miapaca-2 cells; assay: MiaPaca-2 Combination Cell proliferation Assay (1) with cobimetinib; settings: MiaPaca-2 cell proliferation, read-out: MiaPaca-2 Combo (1) IC50
[2] = tested on: Miapaca-2 cells; assay: MiaPaca-2 Combination Cell Proliferation Assay (2) with cobimetinib; settings: MiaPaca-2 cell proliferation, read-out: MiaPaca-2 Combo (2) IC50
Method: MiaPaca-2 Combination Cell Proliferation Assay (2)
Miapaca-2 cells (catalog #CRL-1420) are obtained from the American Type Culture Collect (ATCC, Manassas, VA). Briefly, cells were grown in DMEM supplemented with 10% characterized fetal bovine serum (Invitrogen, Carlsbad, CA), 2.5% New Zealand sourced horse serum and 1% Penicillin/Streptomycin/L-Glutamine at 37° C., 5% CO2, and 95% humidity. Cells are expanded until reaching 70-95% confluency at which point they are subcultured or harvested for assay use. Using the Beckman Coulter Echo 650, a threefold, 8-point serial dilution of compound was spotted column wise into a 384 well black, clear bottom, tissue culture treated plate. Likewise, a threefold, 8-point serial dilution of cobimetinib was spotted row wise into the 384 well black, clear bottom plate containing compound. DMSO concentration was constant across all wells at 0.4%. Seven hundred fifty cells are added per well in 50 μL complete growth medium in each 384-well plate. Plates are incubated for 67-72 hours at 37° C., 5% CO2, and 95% humidity. At the end of the incubation, 10 μL of a 440 μM solution of resazurin (Sigma, St. Louis, MO) in PBS is added to each well of the plate and plates are incubated for an additional 4-6 hours at 37° C., 5% CO2, and 95% humidity. Plates are read on a Synergy2 or equivalent reader (Biotek, Winooski VT) using an excitation of 540 nm and an emission of 600 nm. Drug synergy was assessed via BLISS analysis in the Combenefit software (Cancer Research UK Cambridge Institute, Cambridge, UK). Data is analyzed using Prism software (Graphpad, San Diego, CA) to calculate IC50 values. Shifts in test compound IC50 values are reported from top-constrained combination therapy curves.

[3] = tested on: WM3629 cells; assay: WM3629 Cell Proliferation Assay (2)
Method: WM3629 Cell Proliferation Assay (2)
WM3629 cells (#WM3629-01-0001) are obtained from Rockland Immunochemicals Inc (Gilbertsville, PA). Briefly, cells were grown in MCDB 153 medium (Sigma, #M7403, St. Louis, MO) supplemented with 20% Leibovitz's L-15 (ThermoFisher #11415-064, Waltham, MA), 2% heat inactivated fetal bovine serum (ThermoFisher, #A3840001, Waltham, MA), 5 μg/mL Insulin (Bovine Pancreas) (Sigma, #I0516, St. Louis, MO), 1.68 mM Calcium Chloride (Sigma, #C-34006, St. Louis, MO) and 1% Penicillin/Streptomycin/L-Glutamine (ThermoFisher #10378016, Waltham, MA) at 37° C., 5% CO2, and 95% humidity. Cells are expanded until reaching 70-95% confluency at which point they are sub-cultured or harvested for assay use. Using the Beckman Coulter Echo 650, a serial dilution of test compound is dispensed into a 384-well black clear bottom plate in triplicate. One thousand one hundred twenty-five cells are added per well in 50 μL complete growth medium in the 384-well plate. Plates are incubated for 67-72 hours at 37° C., 5% CO2, and 95% humidity. At the end of the incubation, 10 μL of a 440 μM solution of resazurin (Sigma, #199303, St. Louis, MO) in PBS is added to each well of the plate and plates are incubated for an additional 3-6 hours at 37° C., 5% CO2, and 95% humidity. Plates are read on a Synergy2 or equivalent reader (Biotek, Winooski VT) using an excitation of 540 nm and an emission of 600 nm. Data is analyzed using Prism software (GraphPad, San Diego, CA) to calculate IC50 values.

| Structure (SMILES) | IC50 [1] | IC50 [2] | IC50 [3] |
| --- | --- | --- | --- |
| CNC(=O)c1cc(-c2cncc(-c3cc(NC(=O)c4ccnc(C(C)(C)F)c4)ccc3C)c2)ccn1 [Example 413] | 100 to 500 nM | – | – |
| COc1ccc(NC(=O)c2ccnc(C(C)(C)C#N)c2)cc1-c1cccc(-c2cc(NC(=O)C3CC3)ncn2)c1 [Example 438] | 100 to 500 nM | – | – |
| CNC(=O)c1cc(-c2cncc(-c3cc(NC(=O)c4ccnc(C(C)(F)F)c4)ccc3C)c2)ccn1 [Example 440] | – | 500 to 1000 nM | – |
| CNC(=O)c1cc(-c2cc(-c3cc(NC(=O)c4ccnc(C(C)(F)F)c4)ccc3C)ccn2)ccn1 [Example 441] | – | 100 to 500 nM | – |
| CNC(=O)c1cc(-c2cc(-c3cc(NC(=O)c4ccnc(C(C)C)c4)ccc3C)ccn2)ccn1 [Example 443] | – | 100 to 500 nM | ≤ 100 nM |
| CNC(=O)c1cc(-c2cncc(-c3cc(NC(=O)c4ccnc(C(C)C)c4)ccc3C)c2)ccn1 [Example 445] | – | 100 to 500 nM | ≤ 100 nM |
| CNC(=O)c1cc(-c2cncc(-c3cc(NC(=O)c4ccnc(C(C)C)c4)ccc3C)c2)ncn1 [Example 446] | – | – | ≤ 100 nM |
| Cc1ncc(NC(=O)c2ccnc(C(C)(F)F)c2)cc1-c1ccnc(-c2ccnc(NC(=O)C3CC3)c2)c1 [Example 466] | – | – | ≤ 100 nM |
| CNC(=O)c1cc(-c2cc(-c3cc(NC(=O)c4ccnc(C(C)(C)F)c4)ccc3C)c(F)cn2)ccn1 [Example 469] | – | – | ≤ 100 nM |
| CNC(=O)c1cc(-c2cc(-c3cc(NC(=O)c4ccnc(C(C)(C)F)c4)ccc3C)cc(C)n2)ccn1 [Example 470] | – | – | ≤ 100 nM |
| CNC(=O)c1cc(-c2cc(-c3cc(NC(=O)c4ccnc(C(C)(C)F)c4)ccc3C)cnn2)ccn1 [Example 473] | – | – | ≤ 100 nM |
| CNC(=O)c1cc(-c2cc(-c3cc(NC(=O)c4ccnc(C(C)(C)F)c4)ccc3C)ncn2)ccn1 [Example 474] | – | – | ≤ 100 nM |
| Cc1ccc(NC(=O)c2ccnc(C(C)(C)F)c2)cc1-c1ccnc(-c2ccnc(C(N)=O)c2)c1 [Example 476] | – | 100 to 500 nM | ≤ 100 nM |
| CNC(=O)c1cc(-c2cc(-c3cc(NC(=O)c4cnnc(C(F)(F)F)c4)ccc3C)ccn2)ccn1 [Example 477] | – | – | ≤ 100 nM |
| CNC(=O)c1cc(-c2cc(-c3cc(NC(=O)c4ccnc(C(C)(C)F)c4)ccc3F)ccn2)ccn1 [Example 479] | – | 1000 to 10000 nM | ≤ 100 nM |
| CNC(=O)c1cc(-c2cc(-c3cc(NC(=O)c4ccnc(C(C)(C)F)c4)cc(F)c3C)ccn2)ccn1 [Example 480] | – | – | ≤ 100 nM |
| CNC(=O)c1cc(-c2cc(-c3cc(NC(=O)c4ccnc(C(C)(C)F)c4)ccn3)ccn2)ccn1 [Example 481] | – | – | 1000 to 10000 nM |
| CNC(=O)c1cc(-c2cc(-c3cc(NC(=O)c4ccnc(C(C)(C)F)c4)c(F)cc3F)ccn2)ccn1 [Example 482] | – | 1000 to 10000 nM | ≤ 100 nM |
| Cc1cc(-c2cc(NC(=O)c3ccnc(C(C)(C)F)c3)ccc2C)cc(-c2ccnc(C#N)c2)n1 [Example 483] | – | – | ≤ 100 nM |
| Cc1cc(-c2cc(NC(=O)c3ccnc(C(C)(C)F)c3)ccc2C)cc(-c2ccnc(C(N)=O)c2)n1 [Example 484] | – | 500 to 1000 nM | ≤ 100 nM |
